These results are taken from patent US9408828B2, “(+)-3′-angeloyloxy-4′-keto-3′,4′-dihydroseselin for treating inflammation” (Hong Kong Baptist University, priority 2014, dated 2016).

In brackets after ≈: the same amount, converted by molar mass.

One test deals with NF-κB. Description: Anti-inflammatory bioassay (Quanti-Blue assay), SEAP activity. It counts as cell-based, murine. To be noted: Mus musculus, Macrophage; LPS-stimulated macrophages; read-out: IC50, inhibition of SEAP activity. How it is done: RAW-Blue cells (5×10^4) are cultured in 96-well plate for 24 hours, and then treated with LPS (1 μg/mL) alone or together with test samples for 20 hours. Secreted embryonic alkaline phosphatase (SEAP) activity in the conditioned medium is determined using QUANTI-Blue medium following manufacturer's manual. Briefly, 100 μL samples are added to 200 μL of QUANTI-Blue medium and incubated at 37° C. for 15 to 30 minutes. Absorbance is measured at 620 nm using a micro-plate reader (Benchmark plus Bio-Red, CA, USA) and fold change in SEAP activity is calculated accordingly.
Raw-Blue cells are derived from RAW264.7 macrophages. Then the murine macrophage cell line of Raw-Blue cells is cultured in plastic dishes containing DMEM supplemented with 100 U/mL of penicillin, 100 μg/mL of streptomycin and 10% FBS in an incubator (5% CO2) at 37° C. Cells are sub-cultured every 3 days at a dilution of 1:6.
The SEAP activity in the supernatants of LPS-stimulated RAW-Blue cells reflects the activation of NF-κB. The inhibition of the NF-κB activation can associate with mitigation of colon inflammation responses and apoptosis of intestinal epithelial cells in DSS mouse model. Western blotting and immunofluorescence analysis are performed to determine whether Pd-Ib depressed NF-κB activation. […]

A further test concerns TNF-α. The experiment in a line: ELISA of TNF-α in colon tissue, DSS-induced colitis. It counts as in vivo, C57BL/6 mice. Conditions: compared with the DSS treatment group. How it is done: (§1) Colon levels of cytokines are assayed using commercially available ELISA kits. Briefly, colon samples are homogenized in phosphate buffer containing 0.05% Tween-20, 0.1 mM phenylmethylsulfonyl fluoride, 0.1 mM benzethonium chloride, 10 mM EDTA, and 20 IU aprotinin A. The homogenates are centrifuged at 16000 g at 4° C. for 15 min, and the supernatants are collected for the determination of levels of the cytokines, IL-6, IL-4, TNF-α, and IFN-γ, according to the manufacturer's protocols. The amount of protein in each sample is measured by the Bradford method, using bovine serum albumin as a standard. The levels of each cytokine are evaluated in each sample and expressed in […].
(§2) Colitis is induced in all groups except the control group. Pd-Ib and sulfasalazine are administered to mice from day 6 to day 12. On day 13, the mice are sacrificed, Data are expressed as mean±SEM, n=8 (*p<0.05, **p<0.01, ***p<0.001, compared with DSS model group).

For the next test, the system named is IL-1β. Description: Real-time PCR of IL-1β mRNA in LPS-stimulated RAW-Blue cells. It counts as cell-based, murine. To be noted: LPS 1 μg/mL, 5, 10, 20 μg/mL, 20 hours. How it is done:
(§3) After macrophages are treated with 1 μg/mL of LPS in absence or presence various concentrations of Pd-Ib (5, 10, 20 μg/mL) for 20 hours, the mRNA levels of iNOS (A), TNF-α (B) and IL-1β (C) are determined by real time PCR, while the production of NO (D) is determined by Griess reagent. Data are derived from three independent experiments and presented as mean±SEM, “con” stands for the vehicle control group. ^#Compared with control group. *P<0.05, **P<0.01 and ***P<0.001 are compared with LPS-alone group.
(§4) Raw-Blue cells are plated at 20×10^5 cells/well in 12-well plate. After 24 hours of incubation, cells are pretreated with various concentrations (5-20 μg/mL) of Pd-Ib for 2 hours, followed by co-culturing with LPS (1 μg/mL) for 20 hours. Total RNA of Raw-Blue cells is extracted by Trizol reagent. Two micrograms (2 μg) of total RNA are reverse-transcribed with RT master mix to obtain cDNA. Real-time PCR is performed in a ViiA7 real-time PCR instrument (Applied Biosystems, Life Technologies, CA, USA) with the SYBR Green kit. A melting curve analysis is carried out after amplification to verify the accuracy of the amplicon. The comparative cycle of threshold (ΔΔCT) method of relative quantification is used to determine the fold-change in expression. Primer sequences for mRNA analysis of IL-1β, TNF-α, iNOS and β-Actin are described in Table 1.

Another test concerns iNOS. Description: Real-time PCR of iNOS mRNA in LPS-stimulated RAW-Blue cells. Conditions: LPS 1 μg/mL, 5, 10, 20 μg/mL, 20 hours. It counts as cell-based, murine. How it is done: as §3, §4
For orientation: In qPCR the cycle at which signal appears reflects the starting amount.

In another test the test system is IFN-γ. The experiment in a line: ELISA of IFN-γ in colon tissue, DSS-induced colitis. It counts as in vivo, C57BL/6 mice. Conditions: compared with the DSS treatment group. As for the experimental part: as §1, §2
A further test relates to IκB-α. The experiment in a line: Western blot of IκB-α degradation in LPS-stimulated RAW-Blue cells. It counts as cell-based, murine. Conditions: LPS 1 μg/mL, Pd-Ib 5, 10, 20 μg/mL, 20 h; compared to LPS-stimulated macrophage. How it is done:
Data are derived from three independent experiments and presented as mean±SEM. ^#Compared with control group. *P<0.05 is compared with LPS-alone group.
After Raw-Blue cells are treated with LPS and Pd-Ib, whole cell extract is prepared with lysis buffer [1% Triton X-100, 0.1% SDS, 0.5% deoxycholate, 1 mM EDTA, 20 mM Tris (pH 7.4), 150 mM NaCl, 10 mM NaF, 1 mM Na3VO4, 0.1 mM phenylmethylsulfonyl fluoride and one protease inhibitor cocktail tablet (Roche, USA)]. Total protein concentration is measured using a protein assay kit, followed by centrifugation at 13,500 rpm for 15 minutes at 4° C., then 10-25 μg of protein from the supernatants is then separated on 10% sodium dodecylsulphate-polyacrylamide gel (SDS-PAGE) and transferred on to polyvinylidene difluoride membranes. After blocking with 5% skim milk powder in Tris-buffered saline-Tween (TBST; 50 mM Tris, 150 mM NaCl, pH 7.4; 0.01% Tween-20) for 1 hour at room temperature, the membrane is then incubated with primary antibody (1:5,000 dilution) in 5% skim milk in TBST overnight at 4° C. […] The membrane is rewashed (TBST; 3×10 min), and the immune-reactive proteins are detected by enhanced chemiluminescence using X-ray film and ECL reagent. The protein bands are quantified by measuring the relative intensity compared to the control using Image J Software (version 4.1.7, NIH, USA).
(In western blotting, separated proteins are transferred to a membrane and probed.)

In the case of `C/C=C(\C)C(=O)OC1C(=O)c2c(ccc3ccc(=O)oc23)OC1(C)C` (single isomer, unassigned; (+)) [Pd-Ib, (+)-3′-Angeloyloxy-4′-keto-3′,4′-dihydroseselin], the IC50 with NF-κB stood at 22.5 µg/mL (≈ 65.8 µM). In addition, the “production of TNF-α in colon tissue” value in the test with TNF-α is recorded as “greatly reduces the production”. Also, the “mRNA expression of IL-1β” value in the test on IL-1β is “inhibit the mRNA expressions of TNF-α and IL-1β in a dose-dependent manner”. The “mRNA level of iNOS” value in the test on iNOS is recorded as “remarkedly inhibits the mRNA level of iNOS in a dose-dependent manner”. The “production of IFN-γ in colon tissue” value in the test with IFN-γ is “greatly reduces the production”. In the test with IκB-α, the IκB-α degradation result is “inhibits IκB-α degradation in a dose-dependent manner”.

For orientation: IC50 means the concentration that inhibits the measured activity by half.
